Tests used:
Plasmodium falciparum [1] = assay: NOVARTIS: Inhibition of Plasmodium falciparum W2 (drug-resistant) proliferation in erythrocyte-based infection assay; assay type: functional, organism-based; conditions: Plasmodium falciparum, W2; read-out: EC50
Plasmodium falciparum [2] = assay: NOVARTIS: Inhibition of Plasmodium falciparum 3D7 (drug-susceptible) proliferation in erythrocyte-based infection assay; assay type: functional, organism-based; conditions: Plasmodium falciparum, 3D7
[3] = NOVARTIS: Cytotoxicity against human hepatocellular carcinoma cell line (Huh7); assay type: toxicity, cell-based, Huh-7; conditions: Huh7 cells (hepatocellular carcinoma cell line)

SMILES | EC50 (Plasmodium falciparum [1]) | EC50 (Plasmodium falciparum [2]) | CC50 [3]
Cc1cccnc1NC(=O)CCCC(=O)O | 0.788 µM | > 1.07 µM | > 10 µM
CC(CCCO)Nc1ccnc2cc(Cl)ccc12 (stereo not drawn) | 0.513 µM | 0.561 µM | > 10 µM
CC(C)(C)CC(C)(C)Nc1c(-c2ccccc2OC(=O)c2ccco2)nc2ccccn12 | 4.96 µM | > 12.5 µM | > 100 µM
COCCNCc1cc2cc3c(cc2n(Cc2cccc(F)c2)c1=O)OCO3 | 1.27 µM | > 1.25 µM | > 10 µM
COc1cc(OC)c(N(C)C(=O)c2cc3c(s2)-c2ccccc2S(=O)(=O)C3)cc1Cl | 0.179 µM | 0.113 µM | > 55.6 µM
CC1=C(C(=O)OC2CCCCC2)C(c2ccc(Cl)c(Cl)c2)C2=C(CCCC2=O)N1 (stereo not drawn) | > 12.5 µM | 0.735 µM | > 100 µM
CCC(=O)N1CCN(C(=O)c2ccc(C)cc2)C1 | 1.28 µM | > 1.5 µM | > 10 µM
CCN(CC)Cc1cc(Nc2nc3ccccc3[nH]2)cc(CN(CC)CC)c1O | > 1.25 µM | 0.864 µM | > 10 µM
CCN1CCC(NCCC(c2ccccc2)c2ccccc2)CC1 | 0.066 µM | 0.28 µM | 3.61 µM
COc1ccccc1/C=C/C1=NC(=C\c2ccc(SC)cc2)/C(=O)O1 | 0.228 µM | > 1.25 µM | > 10 µM
Sc1nnc(-c2ccncc2)n1CCc1ccccc1 | 1.08 µM | > 7.49 µM | > 100 µM
OC1(c2ccc(Br)cc2)CCN(C2CCN(CCc3ccccc3)CC2)CC1 | 0.527 µM | 0.136 µM | 4.77 µM
COC(=O)C1=C(C)N/C(=C/c2cc(C)n(-c3ccc(Cl)c(Cl)c3)c2C)C1=O | > 1.25 µM | > 1.02 µM | > 10 µM
COc1ccc2nc(C)cc(N(c3ccc(Br)cc3)S(=O)(=O)c3ccc([N+](=O)[O-])cc3)c2c1 | 1.05 µM | 0.647 µM | 6.83 µM
COC(=O)C1=C(C)NC2=C(C(=O)CC(c3ccc(OC)cc3)C2)C1c1ccccc1F (stereo not drawn) | 0.0884 µM | 0.231 µM | > 100 µM
Cc1ccc(/C=C/c2ccc3ccccc3[n+]2C)cc1 | 0.217 µM | 0.131 µM | > 10 µM
Cc1ccc(Sc2cc(C(=O)NCc3ccco3)c3ccccc3n2)cc1 | 6.58 µM | > 6.98 µM | > 100 µM
O=C(Nc1ccc(-c2cn3ccsc3n2)cc1)c1ccc(S(=O)(=O)N2CCCCCC2)cc1 | 1.23 µM | 0.634 µM | 17.6 µM
N=C(N)c1ccc(OCCCOc2ccc(C(=N)N)cc2)cc1 | 0.0595 µM | 0.0755 µM | > 6.25 µM
CSc1cccc(NC(=O)C2C3C=CC4(O3)C2C(=O)N(CCN2CCCCC2)C4C(=O)NC2CCCC(C)C2C)c1 (stereo not drawn) | 1.9 µM | > 11.1 µM | 48.1 µM
CCCCC(=O)Nc1ccccc1-c1nnn(CC(=O)Nc2ccc3c(c2)OCCO3)n1 | > 1.67 µM | > 1.14 µM | > 10 µM
CCNC(=O)[C@@H]1C[C@@H](NC2C3CC4CC(C3)CC2C4)CN1Cc1cccc(OC)c1OC (stereo partly drawn) | 4.6 µM | > 12.5 µM | 72.2 µM
CCOC(=O)c1cnc2c(C)cc(Cl)cc2c1Nc1ccc(OC)c(OC)c1 | > 0.726 µM | > 1.25 µM | > 11.8 µM
COC(=O)c1c(NC(=O)c2cc3ccccc3oc2=O)sc2c1CCC(C)C2 (stereo not drawn) | > 7.46 µM | > 12.5 µM | > 100 µM
C[n+]1c(C=Cc2ccc(Cl)c(Cl)c2)ccc2ccccc21 | 1.76 µM | 0.524 µM | 5.37 µM
Nc1ccc2[nH]c(/C=C/c3ccc(Cl)cc3)nc2c1 | 2.08 µM | > 1.25 µM | > 10 µM

SMILES | EC50 (Plasmodium falciparum [1]) | EC50 (Plasmodium falciparum [2]) | CC50 [3]
CCC(C(=O)N(C)CCCNc1ccnc2cc(Cl)ccc12)c1ccccc1 (stereo not drawn) | 0.31 µM | 0.311 µM | 6.17 µM
CCc1ccccc1N1C(=O)CN(Cc2ccccc2)C1=S | 6 µM | > 12.5 µM | 78.8 µM
O=C(/C=C/c1ccc(-c2cccc([N+](=O)[O-])c2)o1)Nc1nccs1 | > 0.57 µM | > 1.25 µM | > 10 µM
COC(=O)C1=C(C)NC2=C(C(=O)CC(c3ccccc3Cl)C2)C1c1ccc([N+](=O)[O-])cc1 (stereo not drawn) | 0.105 µM | 0.114 µM | > 100 µM
Cc1ccc[n+](C(C)C(=O)c2ccc(-c3ccccc3)cc2)c1 (stereo not drawn) | 0.649 µM | 1.61 µM | > 100 µM
COc1ccc(OCCNC(=O)c2ccccc2Cl)cc1 | > 0.38 µM | > 1.25 µM | > 10 µM
COc1cccc2cc(C(=O)Nc3cccc(C(F)(F)F)c3)c(=O)oc12 | 0.064 µM | > 1.25 µM | > 2.37 µM
CCOC(=O)N1CCN(c2ccc(C(F)(F)F)cn2)CC1 | 7.18 µM | > 12.5 µM | > 100 µM
Cc1ccc(C(=O)NCCCCNc2ccnc3cc(Cl)ccc23)cc1[N+](=O)[O-] | 0.308 µM | 0.223 µM | > 10 µM
COc1ccc(CN2CCN(C(=O)c3cccnc3)CC2)cc1OC | 2.01 µM | 0.349 µM | > 100 µM
CCCCOC(=O)C1=C(C)NC2=C(C(=O)CCC2)C1c1ccc(Cl)c(Cl)c1 (stereo not drawn) | 0.359 µM | 0.574 µM | > 100 µM
CC(=O)N(C1=C(N2CCCCC2)C(=O)c2ccccc2C1=O)c1cccc(Cl)c1 | 0.375 µM | 0.239 µM | 32 µM
CCCCCc1ccc(OCCOCC[n+]2ccccc2)c(CCCCC)c1 | 0.00685 µM | 0.00708 µM | > 10 µM
Nc1nc(N)c2cc(S(=O)(=O)N3CCCC3)ccc2n1 | > 1.25 µM | 0.0585 µM | 12.9 µM
COc1ccc([N+](=O)[O-])cc1-c1ccc(C=C(C#N)c2nn(CCO)c(N)c2C#N)o1 | 2.29 µM | > 12.5 µM | > 100 µM
COCCN(C(C)C(=O)NC(CN1CCCC1)c1ccccc1)S(=O)(=O)c1c(C)noc1C (stereo not drawn) | 0.406 µM | 0.964 µM | > 11.9 µM
Clc1ccc(-c2c[n+](Cc3ccccc3Cl)c3n2CCC3)cc1Cl | 1.31 µM | 0.749 µM | > 30.9 µM
FC(F)(F)c1cccc(NC(=S)N2CCSC2c2ccc(Br)cc2)c1 (stereo not drawn) | 0.117 µM | 0.217 µM | 43.3 µM
CN(C)CCNc1cc(-c2ccc3ccccc3c2)nc2ccccc12 | 0.729 µM | 0.81 µM | > 100 µM
COc1ccc(-n2c(CNc3cc(C(F)(F)F)ccc3Cl)nnc2SCc2ccccc2Cl)cc1 | 0.801 µM | 0.728 µM | > 100 µM
O=C1NC(=S)N/C1=C/c1cccc(Oc2ccccc2)c1 | > 0.191 µM | 1.89 µM | > 10 µM
Cc1cc2c(cc1S(=O)(=O)N(C)C1CCCCC1)OCC(=O)N2 | > 0.569 µM | > 1.25 µM | > 10 µM
COc1ccccc1Cc1nc2ccccc2nc1SCC(=O)Nc1cccc(C(F)(F)F)c1 | > 8.34 µM | > 5.52 µM | > 100 µM
CCOc1cc(C2CC(=O)NC3=C2C(=O)CC(C)(C)C3)ccc1OC(C)C (stereo not drawn) | 0.137 µM | 0.284 µM | > 100 µM
Brc1cccc(CNC2CCN(CCc3ccccc3)CC2)c1 | 0.515 µM | 0.31 µM | 22.9 µM
